Source: the supplement of paper PMC10307832

Key:
Test in all cases: relative viability (nuclei count vs DMSO), 5 days (fraction); higher = more cells survive
JZL-184 + Trametinib = compound: C1CN(CCC1C(C2=CC3=C(C=C2)OCO3)(C4=CC5=C(C=C4)OCO5)O)C(=O)OC6=CC=C(C=C6)[N+](=O)[O-] [JZL-184] + CC(=O)Nc1cccc(-n2c(=O)n(C3CC3)c(=O)c3c(Nc4ccc(I)cc4F)n(C)c(=O)c(C)c32)c1 [Trametinib] (partner 0.02 µM)
Procedure, shortened: (§1)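 One day after seeding in 1536-well plates, lung cancer cell lines were dosed by pin tool. Dosing was either single-drug or a fixed anchor-drug dose plus five library-drug doses (not always all listed) in √10 steps. After 5 days, nuclei were stained in one fix-and-stain step and counted on 4× images, and relative viability is the nuclei count of treated wells over that of vehicle wells, given as the median of duplicate plates.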

JZL-184 + Luminespib = compound: C1CN(CCC1C(C2=CC3=C(C=C2)OCO3)(C4=CC5=C(C=C4)OCO5)O)C(=O)OC6=CC=C(C=C6)[N+](=O)[O-] [JZL-184] + CCNC(=O)c1noc(-c2cc(C(C)C)c(O)cc2O)c1-c1ccc(CN2CCOCC2)cc1 [Luminespib] (partner 0.01 µM)
Procedure, shortened: as §1

JZL-184 + OSI-027 = compound: C1CN(CCC1C(C2=CC3=C(C=C2)OCO3)(C4=CC5=C(C=C4)OCO5)O)C(=O)OC6=CC=C(C=C6)[N+](=O)[O-] [JZL-184] + COc1cccc2cc(-c3nc([C@H]4CC[C@H](C(=O)O)CC4)n4ncnc(N)c34)[nH]c12 [OSI-027] (partner 0.5 µM)
Procedure, shortened: as §1

JZL-184 + AZD7762 = compound: C1CN(CCC1C(C2=CC3=C(C=C2)OCO3)(C4=CC5=C(C=C4)OCO5)O)C(=O)OC6=CC=C(C=C6)[N+](=O)[O-] [JZL-184] + NC(=O)Nc1cc(-c2cccc(F)c2)sc1C(=O)N[C@H]1CCCNC1 [AZD7762] (partner 0.2 µM)
Procedure, shortened: as §1

JZL-184 + Vorinostat = compound: C1CN(CCC1C(C2=CC3=C(C=C2)OCO3)(C4=CC5=C(C=C4)OCO5)O)C(=O)OC6=CC=C(C=C6)[N+](=O)[O-] [JZL-184] + O=C(CCCCCCC(=O)Nc1ccccc1)NO [Vorinostat] (partner 1 µM)
Procedure, shortened: as §1

| Cell Line | relative viability (JZL-184 + Trametinib; first compound 0.04 µM) | relative viability (JZL-184 + Trametinib; first compound 0.4 µM) | relative viability (JZL-184 + Trametinib; first compound 1.265 µM) | relative viability (JZL-184 + Trametinib; first compound 4 µM) | relative viability (JZL-184 + Luminespib; first compound 0.04 µM) | relative viability (JZL-184 + Luminespib; first compound 0.4 µM) | relative viability (JZL-184 + Luminespib; first compound 1.265 µM) | relative viability (JZL-184 + Luminespib; first compound 4 µM) | relative viability (JZL-184 + OSI-027; first compound 0.04 µM) | relative viability (JZL-184 + OSI-027; first compound 0.4 µM) | relative viability (JZL-184 + OSI-027; first compound 1.265 µM) | relative viability (JZL-184 + OSI-027; first compound 4 µM) | relative viability (JZL-184 + AZD7762; first compound 0.04 µM) | relative viability (JZL-184 + AZD7762; first compound 0.4 µM) | relative viability (JZL-184 + AZD7762; first compound 1.265 µM) | relative viability (JZL-184 + AZD7762; first compound 4 µM) | relative viability (JZL-184 + Vorinostat; first compound 0.04 µM) | relative viability (JZL-184 + Vorinostat; first compound 0.4 µM) | relative viability (JZL-184 + Vorinostat; first compound 1.265 µM) | relative viability (JZL-184 + Vorinostat; first compound 4 µM) |
| --- | --- | --- | --- | --- | --- | --- | --- | --- | --- | --- | --- | --- | --- | --- | --- | --- | --- | --- | --- | --- |
| LK-2 | 0.903 | 0.736 | 0.856 | 0.721 | 0.217 | 0.194 | 0.203 | 0.17 | 0.195 | 0.193 | 0.249 | 0.21 | 0.438 | 0.501 | 0.422 | 0.411 | 0.275 | 0.309 | 0.251 | 0.295 |
| LOU-NH91 | 0.793 | 0.754 | 0.848 | 0.754 | 0.26 | 0.322 | 0.32 | 0.387 | 0.742 | 0.684 | 0.788 | 0.712 | 0.785 | 0.754 | 0.81 | 0.733 | 1.02 | 0.893 | 1.03 | 0.893 |
| LU99A | 0.574 | 0.469 | 0.607 | 0.638 | 0.279 | 0.224 | 0.283 | 0.321 | 0.327 | 0.293 | 0.269 | 0.284 | 0.364 | 0.363 | 0.346 | 0.328 | 0.567 | 0.377 | 0.66 | 0.548 |
| LXF-289 | 0.789 | 0.604 | 0.668 | 0.668 | 0.917 | 0.57 | 0.693 | 0.618 | 0.819 | 0.776 | 0.927 | 0.734 | 1.07 | 1.08 | 1.1 | 1.06 | 0.771 | 0.734 | 0.755 | 0.669 |
| NCI-H23 | 0.409 |  | 0.358 | 0.392 | 0.21 |  | 0.194 | 0.21 | 0.529 | 0.538 | 0.656 | 0.65 | 0.203 |  | 0.25 | 0.283 | 0.62 |  | 0.673 | 0.502 |
| NCI-H322M | 0.456 | 0.48 | 0.513 | 0.482 | 0.91 | 0.797 | 0.889 | 0.705 | 0.555 | 0.488 | 0.55 | 0.52 | 0.549 | 0.523 | 0.629 | 0.521 | 0.882 | 0.784 | 0.867 | 0.684 |
| NCI-H358 | 0.146 | 0.133 | 0.148 | 0.15 | 0.387 | 0.279 | 0.308 | 0.304 | 0.826 | 0.716 | 0.79 | 0.712 | 0.585 | 0.639 | 0.569 | 0.51 | 0.776 | 0.768 | 0.677 | 0.69 |
| NCI-H441 | 0.473 | 0.436 | 0.49 | 0.487 | 0.442 | 0.325 | 0.365 | 0.347 | 0.604 | 0.541 | 0.591 | 0.601 | 1.44 | 1.23 | 1 | 1.02 | 0.793 | 1.02 | 0.784 | 0.697 |
| NCI-H460 | 0.22 | 0.145 | 0.213 | 0.099 | 0.0429 | 0.0344 | 0.0404 | 0.0362 | 1.03 | 0.678 | 0.575 | 0.632 | 0.639 | 0.617 | 0.659 | 0.599 | 0.675 | 0.597 | 0.779 | 0.624 |
| NCI-H522 | 0.856 | 0.758 | 0.791 | 0.802 | 1.29 | 1.14 | 1.18 | 1.29 | 0.906 | 0.748 | 0.748 | 0.748 | 0.898 | 0.706 | 0.885 | 0.781 | 0.937 | 0.858 | 0.952 | 0.947 |
| NCI-H596 | 0.86 | 0.76 | 0.801 | 0.767 | 1.23 | 1.13 | 0.996 | 1.09 | 0.749 | 0.591 | 0.71 | 0.696 | 1.16 | 0.911 | 1.11 | 1.29 | 0.701 | 0.63 | 0.501 | 0.556 |
| NCI-H647 | 0.455 | 0.41 | 0.562 | 0.504 | 0.286 | 0.128 | 0.0998 | 0.216 | 0.625 | 0.698 | 0.75 | 0.51 | 0.45 | 0.391 | 0.426 | 0.451 | 0.898 | 0.635 | 0.892 | 0.4 |
| NCI-H650 | 1.06 | 0.871 | 0.963 | 0.995 | 0.854 | 0.647 | 0.802 | 0.806 | 0.603 | 0.525 | 0.576 | 0.542 | 0.997 | 1.1 | 1.07 | 0.988 | 0.518 | 0.369 | 0.422 | 0.414 |
| NCI-H727 | 0.416 | 0.366 | 0.414 | 0.39 | 0.343 | 0.286 | 0.375 | 0.355 | 0.665 | 0.592 | 0.591 | 0.582 | 0.493 | 0.464 | 0.621 | 0.595 | 1.26 | 1.14 | 1.08 | 1.05 |
